# Values quoted from earlier work in patent US20070253988A1, “Methods for peeling skin” (L'OREAL, priority 2006, published 2007).
# Details: approximately 20° C., concentration of 0.1 M
row,SMILES,pKa
1,"O=S(=O)(O)CCN(CCO)CCO [N,N-bis[2-hydroxyethyl]-2-aminoethanesulfonic acid]",7.17
2,O=S(=O)(O)CCN1CCN(CCO)CC1 [N-2-hydroxyethylpiperazine-N′-2-ethanesulfonic acid],7.55
3,NC(=O)CNCCS(=O)(=O)O [N-(2-acetamido)-2-aminoethanesulfonic acid],6.88
4,"O=S(=O)(O)CCN1CCN(CCS(=O)(=O)O)CC1 [piperazine-N,N′-bis[2-ethanesulfonic]acid]",6.82
